SMILES strings stand for the structures. Like-named read-outs stand apart in the source and are kept apart here.

In data set [1] the test system is Hs 578T. The data set is described as follows: 3D spheroid (tumorosphere) formation assay, low attachment, serum-free, alamarBlue. The format is cell-based. As to conditions: Homo sapiens. The procedure: (§1) 3D spheroid formation assays were performed in 96-well low-attachment, suspension culture plates (cat. no. 655185, Cellstar, Greiner Bio-One) under serum-free condition. About 1,000 (MDA-MB-231, NCI-H358, and MIA PaCa-2) or 2,500 (Hs 578T) cells per well were seeded in 50 μl of either an RPMI medium (cat. no. 52400-025, Gibco, Thermo Fisher Scientific) (MDA-MB-231, A375, and NCI-H358) or DMEM (cat. no. 41965-039, Gibco, Thermo Fisher Scientific) (Hs 578T and MIA PaCa-2), containing 0.5% MethoCult (cat. no. SF H4636, Stemcell technologies), 1x B27 (cat. no. 17504044, Gibco, Thermo Fisher Scientific), 25 ng/ml EGF (cat. no. E9644, Sigma-Aldrich), and 25 ng/ml FGF (cat. no. RP-8628, Thermo Fisher Scientific). Cells were cultured for 3 days and then treated with compounds or vehicle control (DMSO 0.1% v/v in growth medium) for another 3 days. The cells were supplemented with a fresh growth medium on the third day together with the drug treatment. For knockdown experiments, cells were seeded in 12-well plates and treated with either 50 nM scrambled siRNA (cat. no. 1022076, QIAGEN) or indicated concentrations of siRNAs. Next day, cells were collected by trypsinization and re-plated into 96-well plates for 3D spheroid suspension culture.
(§2) Spheroid formation efficiency was analyzed by an alamarBlue assay reagent (cat. no. DAL1100, Thermo Fisher Scientific). A 10% final volume of the alamarBlue reagent was added to each well of the plate and incubated for 4 h at 37°C. Then the fluorescence intensity was measured using the FLUOstar OPTIMA plate reader (BMG Labtech, Germany) with an excitation wavelength of 560 ± 5 nm and an emission wavelength of 590 ± 5 nm.
(§3) To quantitatively profile the drug sensitivity with a more robust parameter than the IC50 or EC50 values, the drug sensitivity score (DSS) analysis was employed. DSS values are essentially normalized area under the curve (AUC) measures of dose-response inhibition data ([Yadav et al., 2014]). Drug response data files (in Excel) ready for online analysis were prepared according to the example file obtained from the DSS pipeline website, called Breeze^1 ([Potdar et al., 2020]). Either raw fluorescence intensity measurements or normalized % inhibition data (for BRET assay analysis) were uploaded.
(§4) DSS3 was employed to emphasize drugs that obtain their response area over a relatively wide dose window, as compared to drugs that show increased response only at the higher end of the concentration range. After logistic fitting of the dose-response inhibition data, the area under the curve (AUC) was determined as the exact solution. A 10% minimal activity threshold (t) was set. The maximum (Cmax) and minimum (Cmin) concentrations were used for screening of the inhibitors, with Cmax = x2 and x1 concentration with minimal activity t.

In data set [2] the test system is MDA-MB-231. Described as above. The data set is classed as cell-based. Conditions: for IC50: Homo sapiens; for KRAS/HRAS mutant cell line DSS3 ratio: MDA-MB-231 vs Hs 578T 3D spheroid formation, 0.6–40 μM, numbers above bars Fig. 1A,B. The procedure: as §1, §2, §3, §4
Data set [3] deals with T1, K-RasG12V/CaM (Homo sapiens, UniProt P0DP23).
T1 construct: expressed in transfected cells; host or cells: HEK293-EBNA
The data set is described as follows: Rluc8-K-RasG12V/GFP2-CaM interaction BRET in HEK293-EBNA cells. The format is cell-based. The procedure: (§5) BRET assays were essentially performed as described by others ([Lavoie et al., 2013]; [Bery et al., 2018]). About 100,00–150,000 HEK293-EBNA ([Meissner et al., 2001]) cells were seeded per well of a 12-well plate in 1 ml of DMEM containing 10% FBS and 2 mM L-glutamine and were grown for 24 h. Next day, Rluc8-tagged donor and GFP2-tagged acceptor constructs were transfected into cells using a jetPRIME transfection reagent (cat. no. 114-75, Polyplus). Each well was transfected with about 1 μg of plasmid DNA using 3 μl of the jetPRIME reagent. For BRET donor saturation titration experiments, the concentration of donor plasmid (25 ng) was kept constant, and the concentration of acceptor plasmid was increased from 0 to 500 ng for RasG12V BRET pairs and 0–1,000 ng for K-Ras/CaM BRET pairs. The empty pcDNA3.1(-) plasmid was used to top-up the total DNA load per transfection. After 24 h of transfection, cells were treated with compounds or vehicle control (DMSO 0.2% v/v in a growth medium) at the specified concentration for 24 h or the stipulated time period in case of the time-course experiments. The cells from one well of a 12-well plate were collected, washed, and re-plated in PBS (cat. no. 14190-094, Gibco, Thermo Fisher Scientific) on flat bottom, white 96-well plates (cat. no. 236108, Nunc, Thermo Fisher Scientific) as four technical replicates containing 90 μl of cell suspension per well. Then fluorescence intensity followed by BRET readings were carried out on a Clariostar (BMG Labtech) plate reader at 25°C. The fluorescence intensity (RFU) of GFP2 was measured with excitation at 405 ± 10 nm and emission 515 ± 10 nm; it is proportional to the acceptor concentration [acceptor]. BRET readings were taken well by well by adding 10 μl of 100 μM coelenterazine 400a (cat. no. C-320, GoldBio), the Rluc8 substrate to each well (final concentration of 10 μM) using the injector present in the plate reader. Luminescence emission intensities were simultaneously recorded at 410 ± 40 nm (RLU, proportional to [donor]) and 515 ± 15 nm (BRET signal).
(§6) The raw BRET ratio was calculated as the BRET signal measured at 515 nm divided by the emission signal measured at 410 nm (RLU). The BRET ratio was obtained by subtracting the raw BRET ratio by a background BRET signal measured for cells expressing only the donor ([Bacart et al., 2008]) as indicated in the formula below:
(§7) For BRET donor saturation titration experiments, the BRET ratio was plotted against the [acceptor]/[donor] ratio. Technical repeat data points were averaged, and data points from all biological repeats were collected into one graph for subsequent fitting. The BRET ratio vs. relative expression data were fitted using a binding saturation equation in the Prism (GraphPad) software to obtain BRETmax and BRET50 using the equation y=BRETmax×x/BRET50+x , where x is the relative expression and y is the BRET ratio. BRETmax represents the maximum saturation BRET signal and depends on the structural parameters (distance, orientation) of the BRET complex. BRET50 corresponds to the ratio of the acceptor construct over the donor construct required to attain 50% of the maximum BRET signal and is a measure of the effective relative affinity between the interacting BRET pair ([Marullo and Bouvier, 2007]).

Data set [4] concerns the target T2, mutCaM (CaM with K75Q, K77Q, and K148Q mutations) (Homo sapiens, UniProt P0DP23, K76Q/K78Q).
T2 construct: made in house; host or cells: E. coli BL21 Star (DE3)pLysS
As to the kind of experiment: Fluorescence polarization assay with F-CaMKII peptide and His-mutCaM. The data set is classed as binding. As to conditions: 50 nM His-mutCaM, 5 nM F-CaMKII, compared to wt CaM. The method, then:
Our numbering of CaM follows ([Kong Au and Chow Leung, 1998]) with Ala being the first amino acid in human CaM, as the N-terminal methionine of CaM is removed in most organisms ([Halling et al., 2016]). […] At A600 of 0.6–0.8, the culture was induced with 0.5 mM of isopropyl β-D-thiogalactopyranoside and expressed for 16 h at 25°C. Cells were collected by centrifugation and incubated on ice for 30 min. The cell suspension was sonicated in a lysis buffer (20 mM HEPES, pH 7.6, 150 mM NaCl, 5 mM MgCl2, 0.5 mg/ml lysozyme, and DNase I). The lysates were clarified by centrifugation at 18,000 g for 30 min at 4°C. The soluble fractions were subjected to protein purification.

Data set [5] deals with calmodulin (CaM) (Bos taurus, UniProt P62157). The data set is described as follows: Fluorescence polarization assay, displacement of F-PMCA peptide from CaM. As to conditions: for kinact/KI: read-out: k2/Ki second-order rate constant.
Protocol: Compounds were threefold-diluted in an assay buffer (20 mM Tris Cl pH 7.5, 50 mM NaCl, 1 mM CaCl2, and 0.005% Tween 20), and a complex of 100 nM CaM and 10 nM F-PMCA peptide was added. […] Then the plate was incubated overnight at 4°C, and the next day, final readings were taken after a total of 24 h incubation. The fluorescence anisotropy was calculated and plotted against the logarithm of the compound concentration and fit to the log inhibitor vs. response–variable slope (four parameters) equation in Prism (GraphPad).
The potency and selectivity of a covalent inhibitor are governed by two parameters, namely, Ki, the dissociation constant of the initial non-covalent complex, and k2, the rate of the subsequent covalent bond-forming reaction as given in the chemical equation
E and I denote a protein target and its covalent inhibitor, respectively. E ⋅ I is the initial non-covalent complex, and E – I is the final covalent complex. […] This was repeated for several inhibitor concentrations. Then, kobs was plotted against the concentration of the inhibitor, and the data were fit to a hyperbolic equation kobs=k2×[I]/Ki+[I] to obtain Ki and k2. The ratio of k2/Ki represents the second-order rate constant of the reaction of the covalent inhibitor with the target.
Data set [6] concerns K-RasG12V. The data set is described as follows: K-RasG12V nanoclustering-BRET assay in HEK293-EBNA cells. The format is cell-based. Conditions: 24 h; calmidazolium 20 μM, OphA 2.5 μM, prostratin 10 μM, mevastatin 10 μM, benzazulenones 20 μM. The procedure:
as §5, §6, §7
When applying the DSS analysis to nanoclustering-BRET data, we used mevastatin (10 μM) to obtain the asymptote parameter (a) for the maximal inhibition effect, as it prevents the prenylation of Ras proteins, their plasma membrane trafficking, and therefore nanoclustering. Otherwise, normalized BRET ratio data were converted to % inhibition and then subsequently uploaded onto the Breeze site (see text footnote 1).

For data set [7], the system named is NCI-H358, MIA PaCa-2, MDA-MB-231 and A375 3D spheroids. The data set is described as follows: 3D spheroid growth benchmarking, DSS3, alamarBlue. The format is cell-based. Conditions: spheroids grown 72 h then treated 72 h. The procedure:
as §1, §2, §3, §4

Data set [8] is described as follows: Chemical stability note. The format is physicochemical.
Where [9] appears, read: 72 h, Hs 578T (H-RasG12D) 3D tumorosphere, 3 days treatment, read-out: IC50.
Setting [10] is: Hs 578T 3D tumorosphere, log scale, read-out: logIC50 ± SD (converted).
The mark [11] stands for this setting: 72 h, MDA-MB-231 (K-RasG13D) 3D tumorosphere, 3 days treatment, read-out: IC50.
[12] abbreviates: MDA-MB-231 3D tumorosphere, log scale, read-out: logIC50 ± SD (converted).

As for `Cc1c(N2CCCCC2)c2c(=O)c(C(F)(F)F)cc3ccc(C(C)C)cc1c32` [Compound 8], the IC50 in data set [1] (setting [9]) is 10.6 µM; in data set [1] (setting [10]) it was 10.5 µM; in data set [2] (setting [11]), 32.4 µM; in data set [2] (setting [12]) it was 31.6 µM; in data set [3] (24-h exposure, A/D plasmid ratio 9/1, read-out: IC50 of Rluc8-K-RasG12V/GFP2-CaM BRET signal) it was 70 ± 11 µM. Further, in data set [2], the “KRAS/HRAS mutant cell line DSS3 ratio” value stood at 1.5. Further, the “binding to mutCaM over time” value in data set [4] is “same binding affinity for wt CaM and mutCaM over time”. In data set [5], this compound showed a Kd of 3.1 µM. In data set [5], affinity was put at a Ki of 39 µM. The kinact/KI in data set [5] was 2.5 M⁻¹ s⁻¹.
As to `CC(=O)O[C@@]12C[C@@H](C)[C@@]3(O)[C@@H](C=C(CO)C[C@]4(O)C(=O)C(C)=C[C@@H]34)[C@@H]1C2(C)C` [prostratin], in data set [6], the “K-Ras selective reduction of nanoclustering-BRET (K-Ras vs H-Ras)” value came to 1.5 fold. Further, the “effect on Rluc8-K-RasG12V/GFP2-CaM BRET signal, single concentration” value in data set [3] (calmidazolium 20 μM, prostratin 20 μM, OphA 5 μM) was “did not have an effect”. Also, the “effect on 3D spheroid growth” value in data set [7] is on record as “almost no effect on cell growth”.
In the case of `C=CC(=O)N1CCN(c2nc(=O)n(-c3c(C)ccnc3C(C)C)c3nc(-c4c(O)cccc4F)c(F)cc23)[C@@H](C)C1` [AMG-510], in data set [7], the “effect on 3D spheroid growth” value is “selectively and potently abolished the growth”.
Turning to `CC(C)c1ccc2cc(C(F)(F)F)c(=O)c3c(N4CCN(C)CC4)c(C=O)c(c1)c23` [Compound 3], the IC50 is 25.8 µM in data set [1] (setting [9]), 25.1 µM in data set [1] (setting [10]), 35 µM in data set [2] (setting [11]) and 34.7 µM in data set [2] (setting [12]). Also, in data set [2], the “KRAS/HRAS mutant cell line DSS3 ratio” value was found to be 6.0. Moreover, in data set [8], the chemical stability entry is on record as “chemically not as stable”. The compound also had a Kd in data set [5] of 0.25 µM. The same compound showed a Ki in data set [5] of 11 µM. The “affinity for CaM relative to OphA” value in data set [5] (after 24-h incubation, higher affinity than OphA) was 15 fold. In data set [5], the kinact/KI is 11.7 M⁻¹ s⁻¹.

The values are drawn from paper PMC8296985, “A Covalent Calmodulin Inhibitor as a Tool to Study Cellular Mechanisms of K-Ras-Driven Stemness” (Frontiers in Cell and Developmental Biology, 2021).
